Data reported in patent US20070202577A1, “Method For The Production Of Hyperbranched Polysaccharide Fractions” (priority 2004, published 2007).

Target: T1, α-amylase from porcine pancreas (Sus scrofa, UniProt P00690)
T1 sequence (P00690 16-511): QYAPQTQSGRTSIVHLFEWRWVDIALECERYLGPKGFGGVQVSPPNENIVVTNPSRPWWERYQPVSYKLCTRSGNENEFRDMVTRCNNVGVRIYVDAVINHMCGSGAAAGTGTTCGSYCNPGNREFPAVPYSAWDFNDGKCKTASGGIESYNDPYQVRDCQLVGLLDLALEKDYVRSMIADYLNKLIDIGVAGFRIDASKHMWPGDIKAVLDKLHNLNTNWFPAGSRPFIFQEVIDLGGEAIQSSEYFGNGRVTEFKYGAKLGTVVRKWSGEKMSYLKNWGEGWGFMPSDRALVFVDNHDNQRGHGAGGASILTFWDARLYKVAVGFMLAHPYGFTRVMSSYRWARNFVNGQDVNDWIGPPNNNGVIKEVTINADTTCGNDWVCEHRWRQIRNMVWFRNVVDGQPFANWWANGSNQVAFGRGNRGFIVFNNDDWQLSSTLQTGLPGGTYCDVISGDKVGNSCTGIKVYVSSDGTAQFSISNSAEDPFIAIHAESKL
Procedure: The solution was heated to 37.0° C., and 0.5 I.U./ml α-amylase from porcine pancreas (from Roche; AS, Art. No. 102 814) was added. Samples were taken after 1 and 3 hours, the enzyme was inactivated by heat, and the molecular weight of the remaining high molecular weight fraction was determined by HPGPC.

rate of degradation with α-amylase, compared with the hyperbranched amylopectin fraction from example 7: comparable
initial weight average molecular weight (pH 7.2): 140 200 daltons
weight average molecular weight after hydrolysis for 1 hour (pH 7.2): 54 700 daltons
weight average molecular weight after hydrolysis for 3 hours (pH 7.2): 33 700 daltons
Substance: hydroxyethyl starch [Voluven]
